Structures can show the parent of a compound that is named as a salt.
Experiments:
bacteria = experiment: Minimum inhibitory concentration (MIC) assay, bacteria; assay type: cell-based
Description: (§1) The assays described below were used to measure the minimum inhibitory concentration (MIC) of a compound necessary to inhibit visible growth of the organism tested. These assays are adapted from NCCLS protocols M7-A4 and M27-A (NCCLS vol 17:9 and vol 17:2) as modified by Sandven, S., Clin. Micro. (1999) 37:12, p. 3856–3859. MIC values for Aspergillus species were determined using NCCLS protocol M38-P.
(§2) All compounds were dissolved in 100% DMSO to a stock concentration of 10 mM and used fresh stock compounds in powder form were kept frozen until needed and used freshly. When used for test purposes, compounds were diluted in the appropriate media depending on the organism being tested.
(§3) For yeast and aspergillus species, seven 1:2 serial dilutions of compound in appropriate media buffered with MOPS at pH 7.0 were prepared such that the final starting test compound concentrations were 44.4 μM for yeast and 50 μM aspergillus species. For bacteria, dilutions were made in growth media used for the particular bacteria being tested.
Five well-separated colonies from a 24 h Sabouraud Dextrose plate incubated at 35° C. were picked and resuspended into 2 mL of normal saline. The O.D.530 was read and the culture was adjusted to 0.5 McFarland units with normal saline. A 1:2000 dilution was made with RPMI 1640 media buffered with MOPS at pH 7.0 and 100 μL of this inoculum preparation was added to an equal volume of test compound-containing media. 25 μL of the redox indicator Alamar Blue (Biosource International) was added to each well and the plates were incubated for 48 h at 35° C. Wells having yeast growth changed color from blue to pink.
Inoculums are made in the same manner as yeast except all dilutions are made in normal saline, with a final dilution of 1:200 and an inoculum of 10 μL.

Aspergillus species = experiment: Minimum inhibitory concentration (MIC) assay, filamentous fungi; assay type: cell-based; conditions: antifungal activity, lowest concentration at which 75% inhibition of growth is observed after 48 h
Description: as §1, §2, §3
Inoculums are made by incubating Aspergillus species for 7 days at 35° C. on potato dextrose agar slants. Slants are then covered with 1.0 mL of 0.85% saline, one drop of Tween 20 is added and colonies are teased with a sterile transfer loop to create a suspension which is allowed to sit for 5 min so heavier particles can drop out. The upper suspension is separated and adjusted to an optical density of 0.09 to 0.11. The resulting suspension is diluted 1:50, which yields 2× the final inoculum needed. Micro dilution trays are prepared as with yeast and incubated for 48 h at 35° C. For our purposes the MIC is defined as the lowest compound concentration at which 75% inhibition of growth is observed after 48 h.

For CNC(=N)NCCCNC(=O)c1ccc2[nH]c(C(=O)Nc3ccc4cc(C(=O)NCCCNC(=N)NC)[nH]c4c3)cc2c1 [Compound 73, 1H-Indole-2,5-dicarboxylic acid 5-[(3-(N′-methyl-guanidino)-propyl)-amide] 2-{[2-(3-(N′-methyl-guanidino)-propylcarbamoyl)-1H-indol-6-yl-]-amide}], the MIC (bacteria) was no more than 45.5 µM and the MIC (Aspergillus species) was no more than 50 µM.

C/N=C(\NC)NCCCNC(=O)c1ccc2[nH]c(C(=O)Nc3ccc4cc(C(=O)NCCCN/C(=N/C)NC)[nH]c4c3)cc2c1 [Compound 74, 1H-Indole-2,5-dicarboxylic acid 5-[(3-(N N′,N″-dimethyl-guanidino)-propyl)-amide] 2-{[2-(3-(N′,N″-dimethyl-guanidino)-propylcarbamoyl)-1H-indol-6-yl-]-amide}] was tested, and the MIC (bacteria) was no more than 45.5 µM and the MIC (Aspergillus species) was no more than 50 µM.

With N=C(N)NCCCNC(=O)c1ccc2[nH]c(C(=O)Nc3ccc4[nH]c(C(=O)NCCCNC(=N)N)cc4c3)cc2c1 [Compound 75, 1H-Indole-2,5-dicarboxylic acid 5-[(3-guanidino-propyl)-amide] 2-{[2-(3-guanidino-propylcarbamoyl)-1H-indol-5-yl-]-amide}] the MIC (bacteria) was no more than 45.5 µM and the MIC (Aspergillus species) was no more than 50 µM.

CNC(=N)NCCCNC(=O)c1ccc2[nH]c(C(=O)Nc3ccc4[nH]c(C(=O)NCCCNC(=N)NC)cc4c3)cc2c1 [Compound 76, 1H-Indole-2,5-dicarboxylic acid S-[(3-(N′-methyl-guanidino)-propyl)-amide] 2-[[2-(3-(N′-methyl-guanidino)-propylcarbamoyl)-1H-indol-5-yl-]-amide)] showed an MIC (bacteria) of no more than 45.5 µM and an MIC (Aspergillus species) of no more than 50 µM.

With C/N=C(\NC)NCCCNC(=O)c1ccc2[nH]c(C(=O)Nc3ccc4[nH]c(C(=O)NCCCN/C(=N/C)NC)cc4c3)cc2c1 [Compound 77, 1H-Indole-2,5-dicarboxylic acid 5-[(3-(N′,N″-dimethyl-guanidino)-propyl)-amide] 2-{[2-(3-(N′,N″-dimethyl-guanidino)-propylcarbamoyl)-1H-indol-5-yl-]-amide}] the MIC (bacteria) was no more than 45.5 µM and the MIC (Aspergillus species) was no more than 50 µM.

CC(C)Cn1cc(NC(=O)c2cc3cc(C(=O)NCCNC(=N)N)ccc3[nH]2)cc1C(=O)NCCNC(=N)N [Compound 80, 1H-Indole-2,5-dicarboxylic acid 5-[(2-guanidino-ethyl)-amide] 2-{[5-(2-guanidino-ethylcarbamoyl)-1-isobutyl-1H-pyrrol-3-yl]-amide)] showed an MIC (bacteria) of no more than 45.5 µM and an MIC (Aspergillus species) of no more than 50 µM.

CNC(=N)NCCNC(=O)c1ccc2[nH]c(C(=O)Nc3cc(C(=O)NCCNC(=N)NC)n(CC(C)C)c3)cc2c1 [Compound 81, 1H-Indole-2,5-dicarboxylic acid 2-({1−isobutyl-5-[2-(N′-methyl-guanidino)-ethylcarbamoyl]-1H-pyrrol-3-yl}amide) 5-{[2-(N′-methyl-guanidino)-ethyl]-amide}] gave an MIC (bacteria) of no more than 45.5 µM and an MIC (Aspergillus species) of no more than 50 µM.

N=C(N)NCCNC(=O)c1ccc2[nH]c(C(=O)Nc3ccc4[nH]c(C(=O)NCCNC(=N)N)cc4c3)cc2c1 [Compound 82, 1H-Indole-2,5-dicarboxylic acid 5-[(2-guanidino-ethyl)-amide] 2-{[2-(2-guanidino-ethylcarbamoyl)-1H-indol-5-yl]-amide}] showed an MIC (bacteria) of no more than 45.5 µM and an MIC (Aspergillus species) of no more than 50 µM.

CC(=N)NCCNC(=O)c1ccc2[nH]c(C(=O)Nc3ccc4[nH]c(C(=O)NCCNC(C)=N)cc4c3)cc2c1 [Compound 89] showed an MIC (bacteria) of no more than 45.5 µM and an MIC (Aspergillus species) of no more than 50 µM.

In the case of CC/N=C(\NC)NCCNC(=O)c1ccc2[nH]c(C(=O)Nc3ccc4[nH]c(C(=O)NCCN/C(=N/CC)NC)cc4c3)cc2c1 [Compound 91, 1H-Indole-2,5-dicarboxylic acid 2-{[2-(N′-ethyl-N′-methylguanidino)ethyl]amide} 5-({2-[2-(N′-ethyl-N″-methylguanidino)ethylcarbamoyl]-1H-indol-5-yl}amide), dihydrochloride], the MIC (bacteria) is reported as no more than 45.5 µM and the MIC (Aspergillus species) is reported as no more than 50 µM.

CN/C(=N\CCO)NCCNC(=O)c1ccc2[nH]c(C(=O)Nc3ccc4[nH]c(C(=O)NCCN/C(=N/CCO)NC)cc4c3)cc2c1 [Compound 92, 1H-Indole-2,5-dicarboxylic acid 2-({2-[N′-(2-hydroxyethyl)-N″-methylguanidino]ethyl}amide) 5-({2-(2-[N′-(2-hydroxyethyl)-N″-methylguanidino]ethylcarbamoyl)-1H-indol-5-yl}amide]dihydrochloride] was tested, and the MIC (bacteria) was no more than 45.5 µM and the MIC (Aspergillus species) was no more than 50 µM.

N=C(N)CCNC(=O)c1cc(NC(=O)c2ccc(C(=O)NCCNC(=N)N)cc2)cn1CC1CC1 [Compound 100, N-[5-(2-Carbamimidoyl-ethylcarbamoyl)-1-cyclopropylmethyl-1H-pyrrol-3-yl]-N′-(2-guanidino-ethyl)-terephthalamide] gave an MIC (bacteria) of no more than 45.5 µM and an MIC (Aspergillus species) of no more than 50 µM.

CNC(=N)NCCNC(=O)c1cc2cc(NC(=O)c3cc4cc(NC(=N)NC)ccc4[nH]3)ccc2[nH]1 [Compound 108, 5-[(5-(N′-methyl-guanidine)-1H-indole-2-carbonyl)-amino]-1H-indole-2-carboxylic acid [2-(N′-methyl-guanidino)ethyl]-amide] gave an MIC (bacteria) of no more than 45.5 µM and an MIC (Aspergillus species) of no more than 50 µM.

CNC(=N)NCCNC(=O)c1cc2cc(NC(=O)c3cc4cc(NC(=O)CNC(=N)NC)ccc4[nH]3)ccc2[nH]1 [Compound 110] showed an MIC (bacteria) of no more than 45.5 µM and an MIC (Aspergillus species) of no more than 50 µM.

In the case of CC(C)Cn1cc(NC(=O)c2cc3cc(NC(=O)CCNC(=N)N)ccc3[nH]2)cc1C(=O)NCCC(=N)N [Compound 115, 5-(3-Guanidino-propionylamino)-1H-indole-2-carboxylic acid [5-(2-carbamimidoyl-ethylcarbamoyl)-1-isobutyl-1H-pyrrol-3-yl]-amide], the MIC (bacteria) is reported as no more than 45.5 µM and the MIC (Aspergillus species) is reported as no more than 50 µM.

With N=C(N)NCCNC(=O)c1ccc2[nH]c(C(=O)Nc3ccc4cc(C(=O)NCNC(=N)N)[nH]c4c3)cc2c1 [Compound 171, 1H-Indole-2,5-dicarboxylic acid 5-[(2-guanidino-ethyl)-amide] 2-{[2-(guanidinomethyl-carbamoyl)-1H-indol-6-yl]-amide}] the MIC (bacteria) was no more than 45.5 µM and the MIC (Aspergillus species) was no more than 50 µM.

N=C(N)NCCNC(=O)c1ccc2[nH]c(C(=O)Nc3ccc4sc(C(=O)NCCNC(=N)N)cc4c3)cc2c1 [Compound 174, 1H-Indole-2,5-dicarboxylic acid 5-[(2-guanidino-ethyl)-amide] 2-{[2-(2-guanidino-ethylcarbamoyl)-benzo[b]thiophen-5-yl]-amide}] gave an MIC (bacteria) of no more than 45.5 µM and an MIC (Aspergillus species) of no more than 50 µM.

N=C(N)NCCNC(=O)c1ccc2[nH]c(C(=O)Nc3ccc4cc(C(=O)NCCNC(=N)c5ccccn5)[nH]c4c3)cc2c1 [Compound 180, 1H-Indole-2,5-dicarboxylic acid 5-[(2-guanidinoethyl)amide] 2-[(2-{2-[(pyridine-2-carboximidoyl)amino]ethylcarbamoyl}-1H-indol-6-yl)amide]] was tested, and the MIC (bacteria) was no more than 45.5 µM and the MIC (Aspergillus species) was no more than 50 µM.

For N=C(N)CCCNC(=O)c1cc2ccc(NC(=O)c3cc4cc(C(=O)NCCNC(=N)N)ccc4[nH]3)cc2[nH]1 [Compound 181, 1H-Indole-2,5-dicarboxylic acid 2-{[2-(3-carbamimidoylpropylcarbamoyl)-1H-indol-6-yl]amide} 5-[(2-guanidinoethyl)amide]], the MIC (bacteria) was no more than 45.5 µM and the MIC (Aspergillus species) was no more than 50 µM.

From patent US7141680B2, “Aromatic compounds possessing antifungal or antibacterial activity” (Genelabs Technologies, Inc., priority 2002, dated 2006)
